Test results: ChEMBL document CHEMBL1201862, “PubChem BioAssay data set” (2004)
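Cells were grown in 96-well plates and exposed to each compound for 48 hours at five concentrations; endpoints were interpolated linearly between bracketing concentrations, or set to the highest concentration if not reached. GI50: concentration for 50% inhibition of growth.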 Active and inactive are the calls of the source. No stated cut-off is given here; in the data, active = GI50 up to about 1.1 µM and inactive = higher.

Tests used:
Experiment in all cases: DTP human tumour cell line panel, 48 h
CCRF-CEM = tested on: CCRF-CEM
COLO 205 = tested on: COLO 205
DU-145 = tested on: DU-145
HCT-15 = tested on: HCT-15
HL-60 = tested on: HL-60
HOP-62 = tested on: HOP-62
HOP-92 = tested on: HOP-92
KM12 = tested on: KM12
M14 = tested on: M14
MDA-MB-231 = tested on: MDA-MB-231
OVCAR-4 = tested on: OVCAR-4
OVCAR-8 = tested on: OVCAR-8
SF-295 = tested on: SF-295
SF-539 = tested on: SF-539
SK-OV-3 = tested on: SK-OV-3
T47D = tested on: T47D
TK-10 = tested on: TK-10
U-251 = tested on: U-251
UACC-62 = tested on: UACC-62
Hs-578T = tested on: Hs-578T

Structure (SMILES)	GI50 (CCRF-CEM)	GI50 (COLO 205)	GI50 (DU-145)	GI50 (HCT-15) [µM]	GI50 (HL-60)	GI50 (HOP-62)	GI50 (HOP-92)	GI50 (KM12)	GI50 (M14)	GI50 (MDA-MB-231)	GI50 (OVCAR-4)	GI50 (OVCAR-8)	GI50 (SF-295)	GI50 (SF-539)	GI50 (SK-OV-3)	GI50 (T47D)	GI50 (TK-10)	GI50 (U-251)	GI50 (UACC-62)	GI50 (Hs-578T)
COc1cccc(-n2nnc3c(N)nc(N)nc32)c1	> 100 µM (inactive)	> 100 µM (inactive)	> 100 µM (inactive)	> 100	> 100 µM (inactive)	> 100 µM (inactive)	> 100 µM (inactive)	> 100 µM (inactive)	> 100 µM (inactive)	> 100 µM (inactive)	> 100 µM (inactive)	> 100 µM (inactive)	> 100 µM (inactive)	> 100 µM (inactive)	> 100 µM (inactive)	> 100 µM (inactive)	> 100 µM (inactive)	> 100 µM (inactive)	33.3 µM (inactive)	–
CCNc1nc2ccccc2nc1NCC	> 100 µM (inactive)	> 100 µM (inactive)	> 100 µM (inactive)	> 100	> 100 µM (inactive)	–	–	> 100 µM (inactive)	> 100 µM (inactive)	> 100 µM (inactive)	–	> 100 µM (inactive)	> 100 µM (inactive)	> 100 µM (inactive)	> 100 µM (inactive)	–	> 100 µM (inactive)	> 100 µM (inactive)	> 100 µM (inactive)	> 100 µM (inactive)
CCOC(=O)Cc1csc2[n+]1C(=O)/C(=C\c1cccc(Cl)c1Cl)S2	12.7 µM (inactive)	1.7 µM (inactive)	16.9 µM (inactive)	16.2	19.5 µM (inactive)	20.8 µM (inactive)	6.85 µM (inactive)	15.4 µM (inactive)	26.9 µM (inactive)	25.9 µM (inactive)	11.6 µM (inactive)	19.5 µM (inactive)	15.3 µM (inactive)	22.3 µM (inactive)	17.3 µM (inactive)	–	16 µM (inactive)	16.6 µM (inactive)	4.94 µM (inactive)	29.5 µM (inactive)
O=c1[nH]nc(-c2ccccc2)n1/N=C/c1c(O)ccc2ccccc12	> 100 µM (inactive)	31.8 µM (inactive)	76.4 µM (inactive)	42.6	–	34.8 µM (inactive)	34.2 µM (inactive)	6.75 µM (inactive)	93.8 µM (inactive)	83.6 µM (inactive)	15.4 µM (inactive)	48.6 µM (inactive)	29 µM (inactive)	31.2 µM (inactive)	28.2 µM (inactive)	–	38.4 µM (inactive)	26.1 µM (inactive)	54.8 µM (inactive)	14.1 µM (inactive)
CCCCOC(=O)C(=O)C(CC(CC)C(=O)c1ccccc1)C(=O)C=C(C)C (stereo not given)	> 100 µM (inactive)	> 100 µM (inactive)	> 100 µM (inactive)	> 100	> 100 µM (inactive)	> 100 µM (inactive)	> 100 µM (inactive)	> 100 µM (inactive)	> 100 µM (inactive)	> 100 µM (inactive)	> 100 µM (inactive)	> 100 µM (inactive)	> 100 µM (inactive)	> 100 µM (inactive)	> 100 µM (inactive)	–	> 100 µM (inactive)	> 100 µM (inactive)	> 100 µM (inactive)	> 100 µM (inactive)
C1CC[C@H]2SSC3CCCC[C@H]3SSC2C1 (stereo not given in full)	> 100 µM (inactive)	> 100 µM (inactive)	> 100 µM (inactive)	> 100	> 100 µM (inactive)	> 100 µM (inactive)	> 100 µM (inactive)	> 100 µM (inactive)	> 100 µM (inactive)	> 100 µM (inactive)	> 100 µM (inactive)	> 100 µM (inactive)	> 100 µM (inactive)	> 100 µM (inactive)	> 100 µM (inactive)	> 100 µM (inactive)	> 100 µM (inactive)	> 100 µM (inactive)	> 100 µM (inactive)	–
CCOCc1c(C)cc(C)c(C2C(C(=O)c3ccccc3)N3c4ccccc4C=CC3C2(C#N)C(=O)OCC)c1C (stereo not given)	56.4 µM (inactive)	19.1 µM (inactive)	37.8 µM (inactive)	44.2	> 100 µM (inactive)	–	–	16.8 µM (inactive)	36.5 µM (inactive)	–	37 µM (inactive)	–	53 µM (inactive)	–	–	–	–	85.7 µM (inactive)	31 µM (inactive)	> 100 µM (inactive)
Cc1ccc(S(=O)(=O)NC(=O)NCCc2c[nH]cn2)cc1	–	> 100 µM (inactive)	> 100 µM (inactive)	> 100	> 100 µM (inactive)	> 100 µM (inactive)	> 100 µM (inactive)	> 100 µM (inactive)	> 100 µM (inactive)	> 100 µM (inactive)	> 100 µM (inactive)	> 100 µM (inactive)	> 100 µM (inactive)	> 100 µM (inactive)	> 100 µM (inactive)	–	> 100 µM (inactive)	> 100 µM (inactive)	> 100 µM (inactive)	> 100 µM (inactive)
Clc1cc(Br)c2c3c(c(Br)cc(Cl)c13)C(Br)=C2Br	–	–	28.4 µM (inactive)	18.6	19.1 µM (inactive)	64.3 µM (inactive)	–	45.8 µM (inactive)	28.2 µM (inactive)	28.1 µM (inactive)	44.9 µM (inactive)	31 µM (inactive)	> 100 µM (inactive)	19 µM (inactive)	> 100 µM (inactive)	–	21.8 µM (inactive)	43.8 µM (inactive)	23.2 µM (inactive)	33.1 µM (inactive)
Cc1ccccc1-n1c(=O)c2ncn(CCCl)c2n(-c2ccccc2C)c1=S	> 100 µM (inactive)	> 100 µM (inactive)	> 100 µM (inactive)	> 100	> 100 µM (inactive)	> 100 µM (inactive)	> 100 µM (inactive)	> 100 µM (inactive)	> 100 µM (inactive)	> 100 µM (inactive)	> 100 µM (inactive)	> 100 µM (inactive)	> 100 µM (inactive)	> 100 µM (inactive)	> 100 µM (inactive)	> 100 µM (inactive)	> 100 µM (inactive)	> 100 µM (inactive)	> 100 µM (inactive)	–
CCCCCC1=C2C(c3ccc(OC)cc3)=C(N)C(c3ccc(OC)cc3)=C3NC(=O)C(C=C1)C32 (stereo not given)	32.6 µM (inactive)	32.1 µM (inactive)	57.5 µM (inactive)	> 100	> 100 µM (inactive)	21.8 µM (inactive)	17.9 µM (inactive)	59.6 µM (inactive)	59.7 µM (inactive)	> 100 µM (inactive)	23.2 µM (inactive)	30.3 µM (inactive)	36.3 µM (inactive)	–	41.7 µM (inactive)	70.1 µM (inactive)	60.7 µM (inactive)	98.2 µM (inactive)	53.1 µM (inactive)	–
Cc1nc2ccc(Cl)cc2c(-n2ccnc2)c1CCn1ccnc1	18 µM (inactive)	18 µM (inactive)	31.9 µM (inactive)	22.7	23.7 µM (inactive)	33.3 µM (inactive)	15.9 µM (inactive)	–	27.8 µM (inactive)	17.8 µM (inactive)	18.9 µM (inactive)	1.75 µM (inactive)	34.2 µM (inactive)	61.4 µM (inactive)	31 µM (inactive)	–	30.2 µM (inactive)	40.5 µM (inactive)	16.3 µM (inactive)	12.9 µM (inactive)
COc1c(C)c(C/C=C(\C)CC/C=C(\C)CC/C=C(\C)CCC=C(C)C)c(OC)c(OC)c1OC	> 100 µM (inactive)	> 100 µM (inactive)	> 100 µM (inactive)	> 100	–	> 100 µM (inactive)	> 100 µM (inactive)	> 100 µM (inactive)	> 100 µM (inactive)	> 100 µM (inactive)	> 100 µM (inactive)	> 100 µM (inactive)	> 100 µM (inactive)	> 100 µM (inactive)	> 100 µM (inactive)	–	> 100 µM (inactive)	> 100 µM (inactive)	> 100 µM (inactive)	> 100 µM (inactive)
O=c1[nH]n(Cc2ccccn2)c2ccc([N+](=O)[O-])cc12	> 100 µM (inactive)	> 100 µM (inactive)	> 100 µM (inactive)	> 100	> 100 µM (inactive)	> 100 µM (inactive)	> 100 µM (inactive)	> 100 µM (inactive)	> 100 µM (inactive)	> 100 µM (inactive)	> 100 µM (inactive)	> 100 µM (inactive)	–	> 100 µM (inactive)	–	–	> 100 µM (inactive)	> 100 µM (inactive)	> 100 µM (inactive)	> 100 µM (inactive)
[N-]=[N+]=C(C(=O)N1CCCC1=O)S(=O)(=O)c1ccccc1	80.7 µM (inactive)	> 100 µM (inactive)	> 100 µM (inactive)	51.9	55.1 µM (inactive)	58.6 µM (inactive)	–	> 100 µM (inactive)	91.2 µM (inactive)	> 100 µM (inactive)	–	> 100 µM (inactive)	> 100 µM (inactive)	98.6 µM (inactive)	–	–	> 100 µM (inactive)	> 100 µM (inactive)	70.6 µM (inactive)	29.4 µM (inactive)
O=C(CNc1ccccc1Cl)Nn1c(-c2ccccc2)nc2ccccc2c1=O	13.4 µM (inactive)	17.9 µM (inactive)	> 100 µM (inactive)	–	22.4 µM (inactive)	27.9 µM (inactive)	13.4 µM (inactive)	28.6 µM (inactive)	> 10 µM (inactive)	> 10 µM (inactive)	26.4 µM (inactive)	40.7 µM (inactive)	31.4 µM (inactive)	21.6 µM (inactive)	38.1 µM (inactive)	–	44 µM (inactive)	17.4 µM (inactive)	> 10 µM (inactive)	25.6 µM (inactive)
